≈ marks a conversion by molar mass, not a printed value. Starred links: 1 amine or outer side, 2 acyl side, 3 side chain; linkers in the order of their positions; H or OH if unused. Positions of bridges follow the written chain, without caps; N, C: chain ends. Non-standard residues stand in square brackets, D forms with d. Residues, ends and D or L forms follow the SMILES beside them. *: point of attachment. Benzoyl(4-OPh) = O=C(c1ccc(Oc2ccccc2)cc1)*; Heptanoyl(6-Me) = CC(C)CCCCC(=O)*; NH(2-ClPh) = Clc1ccccc1N*; X1 = CC[C@H](C)CCCCC(=O)*; Dab = NCC[C@H](N)C(=O)O; CO = O=C([*:1])[*:2]
Columns and labels:
Type in all cases: functional
Details in all cases: read-out: MIC100
[1] = test system: Escherichia coli; assay: Antibacterial activity against Escherichia coli assessed as inhibition of bacterial growth incubated for 24 hrs by broth microdilution method
[2] = test system: Acinetobacter baumannii; assay: Antibacterial activity against Acinetobacter baumannii assessed as inhibition of bacterial growth incubated for 24 hrs by broth microdilution method
[3] = test system: Klebsiella pneumoniae; assay: Antibacterial activity against Klebsiella pneumoniae assessed as inhibition of bacterial growth incubated for 24 hrs by broth microdilution method
[4] = test system: Pseudomonas aeruginosa; assay: Antibacterial activity against Pseudomonas aeruginosa assessed as inhibition of bacterial growth incubated for 24 hrs by broth microdilution method
[5] = test system: Pseudomonas aeruginosa; assay: Antibacterial activity against Pseudomonas aeruginosa PAO1 assessed as inhibition of bacterial growth incubated for 24 hrs by broth microdilution method
[6] = test system: Moraxella catarrhalis; assay: Antibacterial activity against Moraxella catarrhalis assessed as inhibition of bacterial growth incubated for 24 hrs by broth microdilution method

Row | SMILES | MIC [1] | MIC [2] | MIC [3] | MIC [4] | MIC [5] | MIC [6]
1 | CCCCCCCC(=O)N[C@@H](CCN)C(=O)N[C@@H](CCSC)C(=O)N[C@@H](CCN)C(=O)N[C@H]1CCNC(=O)[C@H]([C@@H](C)O)NC(=O)[C@H](CCN)NC(=O)[C@H](CCN)NC(=O)[C@H](CC(C)C)NC(=O)[C@@H](Cc2ccccc2)NC(=O)[C@H](CCN)NC1=O | 4 µg/mL (≈ 3.28 µM) | 2 µg/mL (≈ 1.64 µM) | > 64 µg/mL | 0.125 µg/mL (≈ 0.102 µM) | 2 µg/mL (≈ 1.64 µM) | 8 µg/mL (≈ 6.56 µM)
2 | CC(C)CCCCC(=O)N[C@@H](CCN)C(=O)N[C@H](C(=O)N[C@@H](CCN)C(=O)N[C@H]1CCNC(=O)[C@H]([C@@H](C)O)NC(=O)[C@H](CCN)NC(=O)[C@H](CCN)NC(=O)[C@H](CC(C)C)NC(=O)[C@@H](Cc2ccccc2)NC(=O)[C@H](CCN)NC1=O)[C@@H](C)OC(=O)[C@@H](N)CC(N)=O | – | – | – | – | 1 µg/mL (≈ 0.767 µM) | –
3 | CC(C)CCCCC(=O)N[C@@H](CCN)C(=O)N[C@H](C(=O)N[C@@H](CCN)C(=O)N[C@H]1CCNC(=O)[C@H]([C@@H](C)O)NC(=O)[C@H](CCN)NC(=O)[C@H](CCN)NC(=O)[C@H](CC(C)C)NC(=O)[C@@H](Cc2ccccc2)NC(=O)[C@H](CCN)NC1=O)C(C)C | 8 µg/mL (≈ 6.74 µM) | 16 µg/mL (≈ 13.5 µM) | > 16 µg/mL | 0.5 µg/mL (≈ 0.421 µM) | 4 µg/mL (≈ 3.37 µM) | 8 µg/mL (≈ 6.74 µM)
4 | CCCCCCCC(=O)N[C@@H](CCN)C(=O)N[C@H](C(=O)N[C@@H](CCN)C(=O)N[C@H]1CCNC(=O)[C@H](CS)NC(=O)[C@H](CCN)NC(=O)[C@H](CCN)NC(=O)[C@H](CC(C)C)NC(=O)[C@@H](Cc2ccccc2)NC(=O)[C@H](CCN)NC1=O)[C@@H](C)O | 2 µg/mL (≈ 1.68 µM) | 0.25 µg/mL (≈ 0.21 µM) | 2 µg/mL (≈ 1.68 µM) | 0.06 µg/mL (≈ 0.0504 µM) | 2 µg/mL (≈ 1.68 µM) | 4 µg/mL (≈ 3.36 µM)
5 | CC[C@H](C)CCCCC(=O)N[C@@H](CCN)C(=O)N[C@H](C(=O)N[C@@H](CCN)C(=O)N[C@H]1CCNC(=O)[C@H]([C@@H](C)O)NC(=O)[C@H](CCN)NC(=O)[C@H](CCN)NC(=O)[C@H](CC(C)C)NC(=O)[C@@H](Cc2ccccc2)NC(=O)[C@H](CCN)NC1=O)[C@@H](C)OC(=O)[C@@H](N)CS | – | – | – | – | 2 µg/mL (≈ 1.53 µM) | –
6 | CC(=O)O[C@H](C)[C@H](NC(=O)[C@H](CCN)NC(=O)CCCCC(C)C)C(=O)N[C@@H](CCN)C(=O)N[C@H]1CCNC(=O)[C@H]([C@@H](C)O)NC(=O)[C@H](CCN)NC(=O)[C@H](CCN)NC(=O)[C@H](CC(C)C)NC(=O)[C@@H](Cc2ccccc2)NC(=O)[C@H](CCN)NC1=O | 4 µg/mL (≈ 3.25 µM) | 8 µg/mL (≈ 6.5 µM) | > 32 µg/mL | 0.5 µg/mL (≈ 0.406 µM) | 16 µg/mL (≈ 13 µM) | 16 µg/mL (≈ 13 µM)
7 | CC(C)CCCCC(=O)N[C@@H](CCN)C(=O)N[C@@H](Cc1ccccc1)C(=O)N[C@@H](CCN)C(=O)N[C@H]1CCNC(=O)[C@H]([C@@H](C)O)NC(=O)[C@H](CCN)NC(=O)[C@H](CCN)NC(=O)[C@H](CC(C)C)NC(=O)[C@@H](Cc2ccccc2)NC(=O)[C@H](CCN)NC1=O | 4 µg/mL (≈ 3.24 µM) | 16 µg/mL (≈ 12.9 µM) | > 32 µg/mL | 0.5 µg/mL (≈ 0.405 µM) | 4 µg/mL (≈ 3.24 µM) | 4 µg/mL (≈ 3.24 µM)
8 | CC[C@H](C)CCCCC(=O)N[C@@H](CCN)C(=O)N[C@H](C(=O)N[C@@H](CCN)C(=O)N[C@H]1CCNC(=O)[C@H]([C@@H](C)O)NC(=O)[C@H](CCN)NC(=O)[C@H](CCN)NC(=O)[C@H](CC(C)C)NC(=O)[C@@H](Cc2ccccc2)NC(=O)[C@H](CCN)NC1=O)[C@@H](C)OC(=O)[C@@H](N)CCSC | – | – | – | – | 2 µg/mL (≈ 1.5 µM) | –
9 | CC(C)CCCCC(=O)N[C@@H](CCN)C(=O)N[C@H](C(=O)N[C@@H](CCN)C(=O)N[C@H]1CCNC(=O)[C@H]([C@@H](C)O)NC(=O)[C@H](CCN)NC(=O)[C@H](CCN)NC(=O)[C@H](CC(C)C)NC(=O)[C@@H](Cc2ccccc2)NC(=O)[C@H](CCN)NC1=O)[C@H](C)OC(=O)[C@@H](N)CCC(=O)O | – | – | – | – | 2 µg/mL (≈ 1.52 µM) | –
10 | CC[C@H](C)CCCCC(=O)N[C@@H](CCN)C(=O)N[C@H](C(=O)N[C@@H](CCN)C(=O)N[C@H]1CCNC(=O)[C@H]([C@@H](C)O)NC(=O)[C@H](CCN)NC(=O)[C@H](CCN)NC(=O)[C@H](CC(C)C)NC(=O)[C@@H](Cc2ccccc2)NC(=O)[C@H](CCN)NC1=O)[C@@H](C)OC(=O)[C@@H](N)CCCNC(=N)N | – | – | – | – | 2 µg/mL (≈ 1.47 µM) | –
11 | CC[C@H](C)CCCCC(=O)N[C@@H](CCN)C(=O)N[C@H](C(=O)N[C@@H](CCN)C(=O)N[C@H]1CCNC(=O)[C@H]([C@@H](C)O)NC(=O)[C@H](CCN)NC(=O)[C@H](CCN)NC(=O)[C@H](CC(C)C)NC(=O)[C@@H](Cc2ccccc2)NC(=O)[C@H](CCN)NC1=O)[C@@H](C)OC(=O)[C@@H](N)CCCCN | – | – | – | – | 2 µg/mL (≈ 1.5 µM) | –
12 | CC[C@H](C)CCCCC(=O)N[C@@H](CCN)C(=O)N[C@H](C(=O)N[C@@H](CCN)C(=O)N[C@H]1CCNC(=O)[C@H]([C@@H](C)O)NC(=O)[C@H](CCN)NC(=O)[C@H](CCN)NC(=O)[C@H](CC(C)C)NC(=O)[C@@H](Cc2ccccc2)NC(=O)[C@H](CCN)NC1=O)[C@@H](C)OC(=O)[C@@H](N)CC(N)=O | – | – | – | – | 2 µg/mL (≈ 1.52 µM) | –
13 | CCCCCCCC(=O)N[C@@H](CCN)C(=O)N[C@H](C(=O)N[C@@H](CCN)C(=O)N[C@H]1CCNC(=O)[C@H](C(C)C)NC(=O)[C@H](CCN)NC(=O)[C@H](CCN)NC(=O)[C@H](CC(C)C)NC(=O)[C@@H](Cc2ccccc2)NC(=O)[C@H](CCN)NC1=O)[C@@H](C)O | 8 µg/mL (≈ 6.74 µM) | 1 µg/mL (≈ 0.842 µM) | 4 µg/mL (≈ 3.37 µM) | 0.5 µg/mL (≈ 0.421 µM) | 4 µg/mL (≈ 3.37 µM) | 4 µg/mL (≈ 3.37 µM)
14 | CC(C)CCCCC(=O)N[C@@H](CCN)C(=O)N[C@@H](CC(C)C)C(=O)N[C@@H](CCN)C(=O)N[C@H]1CCNC(=O)[C@H]([C@@H](C)O)NC(=O)[C@H](CCN)NC(=O)[C@H](CCN)NC(=O)[C@H](CC(C)C)NC(=O)[C@@H](Cc2ccccc2)NC(=O)[C@H](CCN)NC1=O | 1 µg/mL (≈ 0.832 µM) | 2 µg/mL (≈ 1.66 µM) | 1 µg/mL (≈ 0.832 µM) | 0.25 µg/mL (≈ 0.208 µM) | 2 µg/mL (≈ 1.66 µM) | 8 µg/mL (≈ 6.66 µM)
15 | CC(C)CCCCC(=O)N[C@@H](CCN)C(=O)N[C@H](C(=O)N[C@@H](CCN)C(=O)N[C@H]1CCNC(=O)[C@H]([C@@H](C)O)NC(=O)[C@H](CCN)NC(=O)[C@H](CCN)NC(=O)[C@H](CC(C)C)NC(=O)[C@@H](Cc2ccccc2)NC(=O)[C@H](CCN)NC1=O)[C@@H](C)OC(=O)[C@@H](N)CC(=O)O | – | – | – | – | 2 µg/mL (≈ 1.53 µM) | –
16 | CCCCCCCC(=O)N[C@@H](CCN)C(=O)N[C@H](C(=O)N[C@@H](CCN)C(=O)N[C@H]1CCNC(=O)[C@H](CCN)NC(=O)[C@H](CCN)NC(=O)[C@H](CCN)NC(=O)[C@H](CC(C)C)NC(=O)[C@@H](Cc2ccccc2)NC(=O)[C@H](CCN)NC1=O)[C@@H](C)O | 8 µg/mL (≈ 6.73 µM) | 0.25 µg/mL (≈ 0.21 µM) | > 32 µg/mL | 8 µg/mL (≈ 6.73 µM) | 64 µg/mL (≈ 53.8 µM) | 8 µg/mL (≈ 6.73 µM)
17 | CC[C@H](C)CCCCC(=O)N[C@@H](CCN)C(=O)N[C@H](C(=O)N[C@@H](CCN)C(=O)N[C@H]1CCNC(=O)[C@H]([C@@H](C)O)NC(=O)[C@H](CCN)NC(=O)[C@H](CCN)NC(=O)[C@H](CC(C)C)NC(=O)[C@@H](Cc2ccccc2)NC(=O)[C@H](CCN)NC1=O)[C@@H](C)OC(=O)[C@@H](N)CCC(=O)O | – | – | – | – | 1 µg/mL (≈ 0.75 µM) | –
18 | CC(C)C[C@@H]1NC(=O)[C@@H](Cc2ccccc2)NC(=O)[C@H](CCN)NC(=O)[C@@H](NC(=O)[C@H](CCN)NC(=O)[C@@H](NC(=O)[C@H](CCN)NC(=O)CCCCCCCN)[C@@H](C)O)CCNC(=O)[C@H]([C@@H](C)O)NC(=O)[C@H](CCN)NC(=O)[C@H](CCN)NC1=O | 8 µg/mL (≈ 6.64 µM) | 2 µg/mL (≈ 1.66 µM) | > 32 µg/mL | 0.125 µg/mL (≈ 0.104 µM) | 1 µg/mL (≈ 0.83 µM) | > 32 µg/mL
19 | CC[C@H](C)CCCCC(=O)N[C@@H](CCN)C(=O)N[C@H](C(=O)N[C@@H](CCN)C(=O)N[C@H]1CCNC(=O)[C@H]([C@@H](C)O)NC(=O)[C@H](CCN)NC(=O)[C@H](CCN)NC(=O)[C@H](CC(C)C)NC(=O)[C@@H](Cc2ccccc2)NC(=O)[C@H](CCN)NC1=O)[C@@H](C)O (X1-[Dab]T[Dab][Dab][Dab][dF]L[Dab][Dab]T; lactam 4-C) | – | – | – | – | 2 µg/mL (≈ 1.66 µM) | –
20 | CC(C)C[C@@H]1NC(=O)[C@@H](Cc2ccccc2)NC(=O)[C@H](CCN)NC(=O)[C@@H](NC(=O)[C@H](CCN)NC(=O)[C@@H](NC(=O)[C@H](CCN)NC(=O)c2ccc(Oc3ccccc3)cc2)[C@@H](C)O)CCNC(=O)[C@H]([C@@H](C)O)NC(=O)[C@H](CCN)NC(=O)[C@H](CCN)NC1=O ({Benzoyl(4-OPh)}-[Dab]T[Dab][Dab][Dab][dF]L[Dab][Dab]T; lactam 4-C) | – | – | – | – | 4 µg/mL (≈ 3.18 µM) | –
21 | CC(C)C[C@@H]1NC(=O)[C@@H](Cc2ccccc2)NC(=O)[C@H](CCN)NC(=O)[C@@H](NC(=O)[C@H](CCN)NC(=O)[C@@H](NC(=O)[C@H](CCN)NC(=O)Nc2ccccc2Cl)[C@@H](C)O)CCNC(=O)[C@H]([C@@H](C)O)NC(=O)[C@H](CCN)NC(=O)[C@H](CCN)NC1=O ({NH(2-ClPh)-CO}-[Dab]T[Dab][Dab][Dab][dF]L[Dab][Dab]T; lactam 4-C) | – | – | – | – | 4 µg/mL (≈ 3.29 µM) | –
22 | CC(C)CCCCC(=O)N[C@@H](CCN)C(=O)N[C@H](C(=O)N[C@@H](CCN)C(=O)N[C@H]1CCNC(=O)[C@H]([C@@H](C)O)NC(=O)[C@H](CCN)NC(=O)[C@H](CCN)NC(=O)[C@H](CC(C)C)NC(=O)[C@@H](Cc2ccccc2)NC(=O)[C@H](CCN)NC1=O)[C@@H](C)O [POLYMYXIN B2] ({Heptanoyl(6-Me)}-[Dab]T[Dab][Dab][Dab][dF]L[Dab][Dab]T; lactam 4-C) | – | – | – | – | 1 µg/mL (≈ 0.841 µM) | –

Source: ChEMBL document CHEMBL4825673, “Total and Semisyntheses of Polymyxin Analogues with 2-Thr or 10-Thr Modifications to Decipher the Structure-Activity Relationship and Improve the Antibacterial Activity” (J Med Chem, 2021)
